Experimental findings from ChEMBL document CHEMBL1909046, “DrugMatrix in vitro pharmacology data” are described below.

SMILES strings stand for the structures.

Assay [1] deals with T1, Cholecystokinin receptor type A (Homo sapiens, UniProt P32238).
T1 sequence (P32238 whole entry): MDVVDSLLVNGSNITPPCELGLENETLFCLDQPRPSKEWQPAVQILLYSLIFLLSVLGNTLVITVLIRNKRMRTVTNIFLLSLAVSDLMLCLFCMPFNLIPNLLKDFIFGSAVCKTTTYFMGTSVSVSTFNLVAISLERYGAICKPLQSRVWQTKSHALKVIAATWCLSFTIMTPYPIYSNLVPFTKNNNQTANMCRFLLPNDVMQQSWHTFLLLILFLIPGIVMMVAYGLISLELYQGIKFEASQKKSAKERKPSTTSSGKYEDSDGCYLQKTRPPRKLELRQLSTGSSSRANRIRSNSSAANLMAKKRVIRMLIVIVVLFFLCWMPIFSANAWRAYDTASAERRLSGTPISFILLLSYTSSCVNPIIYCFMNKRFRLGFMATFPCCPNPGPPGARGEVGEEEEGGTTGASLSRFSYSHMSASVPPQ
The assay is classed as cell membranes, Membrane. The following applies: 1321-n1.

Assay [2] in a line: DRUGMATRIX: Phosphodiesterase PDE4 enzyme inhibition (substrate: [3H]cAMP + cAMP). The following applies: u-937; Not Active = under 50% inhibition at 10 µM.
The next assay concerns the target T2, Caspase-1 (Homo sapiens, UniProt P29466).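 Note: Caspase-1 enzyme inhibition assay with a peptide substrate; in other assays of this panel Not Active means under 50% inhibition at 10 µM.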
T2 sequence (P29466 whole entry): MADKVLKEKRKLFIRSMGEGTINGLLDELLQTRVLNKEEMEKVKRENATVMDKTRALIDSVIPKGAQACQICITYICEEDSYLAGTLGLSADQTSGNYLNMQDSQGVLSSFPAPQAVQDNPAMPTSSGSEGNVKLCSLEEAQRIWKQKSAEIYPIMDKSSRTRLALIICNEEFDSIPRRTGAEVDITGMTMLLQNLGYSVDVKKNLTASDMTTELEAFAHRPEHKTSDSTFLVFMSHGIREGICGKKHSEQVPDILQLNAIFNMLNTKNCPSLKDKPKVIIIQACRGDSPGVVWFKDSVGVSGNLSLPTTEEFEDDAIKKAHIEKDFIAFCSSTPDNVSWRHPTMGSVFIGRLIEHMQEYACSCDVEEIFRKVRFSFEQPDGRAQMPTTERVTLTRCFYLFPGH
Also on record: species or system Escherichia coli.

The target in a further assay is Melanocortin receptor 3 (Homo sapiens, UniProt P41968). It is filed as cell membranes, Membrane. To be noted: hek293. Note: in other assays of this panel Not Active means under 50% inhibition at 10 µM.
A further assay deals with T3, Adenosine receptor A1 (Homo sapiens, UniProt P30542).
T3 sequence (P30542 whole entry): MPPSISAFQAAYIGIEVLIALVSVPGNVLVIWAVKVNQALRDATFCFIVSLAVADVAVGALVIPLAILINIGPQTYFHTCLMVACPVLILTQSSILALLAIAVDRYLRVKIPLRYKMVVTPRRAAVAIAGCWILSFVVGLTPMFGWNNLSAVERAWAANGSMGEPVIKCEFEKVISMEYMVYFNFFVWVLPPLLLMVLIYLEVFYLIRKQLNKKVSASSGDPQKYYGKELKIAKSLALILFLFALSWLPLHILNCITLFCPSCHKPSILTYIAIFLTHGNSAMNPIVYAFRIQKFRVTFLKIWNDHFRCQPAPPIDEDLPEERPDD
The assay is classed as cell membranes, CHO, Membrane.

The target in the next assay is T4, Glucocorticoid receptor (Homo sapiens, UniProt P04150). Note: in other assays of this panel Not Active means under 50% inhibition at 10 µM.
T4 sequence (P04150 whole entry): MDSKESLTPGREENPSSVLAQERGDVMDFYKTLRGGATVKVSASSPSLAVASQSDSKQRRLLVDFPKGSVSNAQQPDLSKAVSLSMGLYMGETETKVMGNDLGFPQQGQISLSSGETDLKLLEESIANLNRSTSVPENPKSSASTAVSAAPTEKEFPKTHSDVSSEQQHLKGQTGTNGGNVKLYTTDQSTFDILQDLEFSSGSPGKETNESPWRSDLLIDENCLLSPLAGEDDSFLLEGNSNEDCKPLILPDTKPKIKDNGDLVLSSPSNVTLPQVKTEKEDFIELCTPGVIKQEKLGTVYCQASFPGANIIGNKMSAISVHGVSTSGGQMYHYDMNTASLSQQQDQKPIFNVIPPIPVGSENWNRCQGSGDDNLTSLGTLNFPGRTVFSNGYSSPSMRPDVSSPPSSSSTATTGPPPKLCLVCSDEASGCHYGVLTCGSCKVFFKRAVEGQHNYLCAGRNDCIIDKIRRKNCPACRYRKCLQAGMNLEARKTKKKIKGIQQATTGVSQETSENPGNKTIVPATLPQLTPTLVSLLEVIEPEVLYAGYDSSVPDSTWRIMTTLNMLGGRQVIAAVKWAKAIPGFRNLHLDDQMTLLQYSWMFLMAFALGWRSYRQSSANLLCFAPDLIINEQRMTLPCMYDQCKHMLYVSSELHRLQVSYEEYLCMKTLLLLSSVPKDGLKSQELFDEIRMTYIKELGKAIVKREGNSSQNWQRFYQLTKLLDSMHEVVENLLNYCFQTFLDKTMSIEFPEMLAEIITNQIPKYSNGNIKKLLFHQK
To be noted: hela s3.

Another assay concerns the target Vasopressin V1a receptor (Homo sapiens, UniProt P37288). The assay is classed as cell membranes, Membrane. To be noted: hek293. Note: in other assays of this panel Not Active means under 50% inhibition at 10 µM.
Assay [3] can be described thus: DRUGMATRIX: beta-Lactamase enzyme inhibition (substrate: Nitrocefin). More on the design: species or system Bacillus cereus. The following applies: Not Active = under 50% inhibition at 10 µM.

By IC50 is commonly meant the concentration that inhibits the measured activity by half. What is called Ki is the equilibrium dissociation constant of an inhibitor or competing ligand from its target.

Chain of Vasopressin V1a receptor (P37288 whole entry): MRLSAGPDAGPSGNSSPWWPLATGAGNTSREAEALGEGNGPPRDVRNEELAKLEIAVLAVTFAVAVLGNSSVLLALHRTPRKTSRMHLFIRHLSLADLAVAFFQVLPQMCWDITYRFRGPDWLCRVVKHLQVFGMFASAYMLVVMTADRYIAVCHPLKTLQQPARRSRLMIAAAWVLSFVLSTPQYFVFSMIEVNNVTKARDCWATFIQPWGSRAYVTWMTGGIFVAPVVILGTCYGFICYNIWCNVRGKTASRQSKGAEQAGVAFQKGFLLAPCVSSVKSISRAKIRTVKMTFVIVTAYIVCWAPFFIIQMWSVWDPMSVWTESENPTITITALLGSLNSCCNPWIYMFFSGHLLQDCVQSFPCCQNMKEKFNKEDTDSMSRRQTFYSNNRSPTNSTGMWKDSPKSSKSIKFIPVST
Chain of Melanocortin receptor 3 (P41968 whole entry): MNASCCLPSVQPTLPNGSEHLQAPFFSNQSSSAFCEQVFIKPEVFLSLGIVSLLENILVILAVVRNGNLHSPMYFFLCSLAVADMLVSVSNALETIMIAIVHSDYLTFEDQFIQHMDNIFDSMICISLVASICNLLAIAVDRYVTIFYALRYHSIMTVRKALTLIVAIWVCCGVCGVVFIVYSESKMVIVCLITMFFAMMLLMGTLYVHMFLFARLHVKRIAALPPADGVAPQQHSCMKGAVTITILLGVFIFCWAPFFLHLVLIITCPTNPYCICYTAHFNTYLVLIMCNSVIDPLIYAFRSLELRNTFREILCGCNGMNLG

Take `CC(CCc1ccc(O)cc1)NCCc1ccc(O)c(O)c1` (stereo unspecified) [DOBUTAMINE]: the half-maximal inhibitory concentration (IC50) entry (in assay [1]; in assay [2]; against Caspase-1; at Melanocortin receptor 3; on Adenosine receptor A1 (cho); at Glucocorticoid receptor) was “Not Active” in each case. For the same molecule, the half-maximal inhibitory concentration (IC50) result (at Vasopressin V1a receptor; in assay [3]) was “Not Active” each time. Besides, the Ki entry in assay [2] and in assay [3] was “Not Active” in each case.

With `CCC(=O)O[C@H]1[C@H](O[C@@H]2[C@@H](C)[C@H](O[C@H]3C[C@@](C)(OC)[C@@H](O)[C@H](C)O3)[C@@H](C)C(=O)O[C@H](CC)[C@@](C)(O)[C@H](O)[C@@H](C)C(=O)[C@H](C)C[C@@]2(C)O)O[C@H](C)C[C@@H]1N(C)C` [ERYTHROMYCIN PROPIONATE], the half-maximal inhibitory concentration (IC50) result (in assay [1]; in assay [2]; against Caspase-1; against Melanocortin receptor 3; at Adenosine receptor A1 (cho); against Glucocorticoid receptor) was “Not Active” throughout. In addition, the concentration for half-maximal inhibition (IC50) entry (on Vasopressin V1a receptor; in assay [3]) was “Not Active” throughout. Also, the inhibition constant (Ki) result in assay [2] and in assay [3] was “Not Active” each time.

Regarding `C=C(CC)C(=O)c1ccc(OCC(=O)O)c(Cl)c1Cl` [ETHACRYNIC ACID], the 50% inhibitory concentration (IC50) result (in assay [1]; in assay [2]; at Caspase-1; against Melanocortin receptor 3; against Adenosine receptor A1 (cho); at Glucocorticoid receptor) was “Not Active” each time. Further, the IC50 entry (at Vasopressin V1a receptor; in assay [3]) was “Not Active” each time. For the same molecule, the Ki entry in assay [2] and in assay [3] was “Not Active” each time.

Take `CC(=O)OCC(CCn1cnc2cnc(N)nc21)COC(C)=O` [FAMCICLOVIR]: the IC50 result (in assay [1]; in assay [2]; on Caspase-1; against Melanocortin receptor 3; against Adenosine receptor A1 (cho); on Glucocorticoid receptor) was “Not Active” in each case. Besides, the concentration for half-maximal inhibition (IC50) result (against Vasopressin V1a receptor; in assay [3]) was “Not Active” each time. In addition, the Ki entry in assay [2] and in assay [3] was “Not Active” throughout.

`O=C(O)Cc1ccc(-c2ccccc2)cc1` [FELBINAC]: the IC50 result (in assay [1]; in assay [2]; against Caspase-1; on Melanocortin receptor 3; against Adenosine receptor A1 (cho); on Glucocorticoid receptor) was “Not Active” throughout. The half-maximal inhibitory concentration (IC50) result (against Vasopressin V1a receptor; in assay [3]) was “Not Active” throughout. The inhibition constant Ki entry in assay [2] and in assay [3] was “Not Active” in each case.

With `CCOC(=O)C1=C(C)NC(C)=C(C(=O)OC)C1c1cccc(Cl)c1Cl` (stereo unspecified) [FELODIPINE], the half-inhibitory concentration (IC50) entry (in assay [1]; in assay [2]; on Caspase-1; against Melanocortin receptor 3; against Adenosine receptor A1 (cho); against Glucocorticoid receptor) was “Not Active” each time. Further, the IC50 entry (against Vasopressin V1a receptor; in assay [3]) was “Not Active” throughout. Further, the Ki entry in assay [2] and in assay [3] was “Not Active” each time.

`CC(C(=O)O)c1ccc(-c2ccccc2)c(F)c1` (stereo unspecified) [FLURBIPROFEN]: the IC50 result (in assay [1]; in assay [2]; on Caspase-1; on Melanocortin receptor 3; on Adenosine receptor A1 (cho); on Glucocorticoid receptor) was “Not Active” throughout. Further, the half-maximal inhibitory concentration (IC50) result (against Vasopressin V1a receptor; in assay [3]) was “Not Active” each time. Moreover, the Ki entry in assay [2] and in assay [3] was “Not Active” each time.

With `Cc1cn[nH]c1` [FOMEPIZOLE], the concentration for half-maximal inhibition (IC50) entry (in assay [1]; in assay [2]; on Caspase-1; on Melanocortin receptor 3; against Adenosine receptor A1 (cho); at Glucocorticoid receptor) was “Not Active” throughout. Moreover, the concentration for half-maximal inhibition (IC50) result (against Vasopressin V1a receptor; in assay [3]) was “Not Active” each time. The inhibition constant (Ki) entry in assay [2] and in assay [3] was “Not Active” in each case.

For the molecule `C[C@H]([C@](O)(Cn1cncn1)c1ccc(F)cc1F)S(C)(=O)=O` [GENACONAZOLE], the IC50 result (in assay [1]; in assay [2]; against Caspase-1; on Melanocortin receptor 3; on Adenosine receptor A1 (cho); against Glucocorticoid receptor) was “Not Active” in each case. In addition, the IC50 result (on Vasopressin V1a receptor; in assay [3]) was “Not Active” throughout. Moreover, the Ki result in assay [2] and in assay [3] was “Not Active” in each case.

Regarding `Cc1c(F)c(N2CCNC(C)C2)cc2c1c(=O)c(C(=O)O)cn2C1CC1` (stereo unspecified) [GREPAFLOXACIN], the IC50 entry (in assay [1]; in assay [2]; at Caspase-1; on Melanocortin receptor 3; against Adenosine receptor A1 (cho); on Glucocorticoid receptor) was “Not Active” throughout. The IC50 entry (against Vasopressin V1a receptor; in assay [3]) was “Not Active” in each case. Also, the Ki entry in assay [2] and in assay [3] was “Not Active” each time.

Take `C/C=C\c1ccc(O)c(OC)c1` [ISOEUGENOL]: the IC50 result (in assay [1]; in assay [2]; against Caspase-1; against Melanocortin receptor 3; at Adenosine receptor A1 (cho); on Glucocorticoid receptor) was “Not Active” throughout. Also, the IC50 result (against Vasopressin V1a receptor; in assay [3]) was “Not Active” in each case. Besides, the Ki entry in assay [2] and in assay [3] was “Not Active” each time.

With `NC[C@H]1O[C@H](O[C@H]2[C@H](O)[C@@H](O[C@H]3O[C@H](CO)[C@@H](O)[C@H](N)[C@H]3O)[C@H](N)C[C@@H]2N)[C@H](O)[C@@H](O)[C@@H]1O` [KANAMYCIN], the IC50 entry (in assay [1]; in assay [2]; against Caspase-1; against Melanocortin receptor 3; against Adenosine receptor A1 (cho); against Glucocorticoid receptor) was “Not Active” throughout. Moreover, the IC50 entry (on Vasopressin V1a receptor; in assay [3]) was “Not Active” throughout. Also, the Ki result in assay [2] and in assay [3] was “Not Active” throughout.

Take `CC[C@H](C)C(=O)O[C@H]1C[C@@H](C)C=C2C=C[C@H](C)[C@H](CC[C@@H]3C[C@@H](O)CC(=O)O3)[C@H]21` [LOVASTATIN]: the IC50 entry is “Not Active” in assay [1]; “Not Active” in assay [2]; “Not Active” at Caspase-1; “Not Active” against Melanocortin receptor 3; 26.7 µM on Adenosine receptor A1 (read-out: IC50); “Not Active” against Glucocorticoid receptor. Further, the 50% inhibitory concentration (IC50) entry (against Vasopressin V1a receptor; in assay [3]) was “Not Active” in each case. Besides, the results for the Ki entry (in assay [2]; on Adenosine receptor A1 (read-out: Ki); in assay [3]) were “Not Active”, 15.6 µM and “Not Active”, respectively.
